Peptide text beside a SMILES is read from it.

Common to all, as to assay type: cell-based
One assay concerns the target T1, PrRPR Y120A (Homo sapiens, UniProt P49683, Y120A).
T1 construct: expressed in transfected cells; host or cells: AD293 cells
In words: BRET2 Gi dissociation, Y120A. The settings on record: Y120A (2.64), Gi-coupling, AD293 cells; mean ± S.E.M., n = 3; P <0.0001 vs WT; read-out: BRET2 pEC50 (converted). The procedure: (§1) AD293 cells (Agilent) were propagated in Dulbecco’s Modified Eagle Medium (DMEM, Thermo Fisher Scientific), enriched with 10% fetal bovine serum (FBS, Thermo Fisher Scientific), and maintained at 37 °C in a 5% CO2 environment. Cells were then seeded in 6-well dishes at a density of 130,000–150,000 cells per mL and allowed to incubate overnight. On the next day, cells were transfected with plasmids at a 1:1:1:1 ratio for receptor:Gα-RLuc8:Gβ:Gγ-GFP2[52]. PEI MAX 40 K (BIOHUB) was utilized to form complex with the plasmids at a ratio of 3 µL PEI per µg of plasmids, in OptiMEM (Gibco-Thermo Fisher Scientific) at a concentration of 10 ng plasmids per µL OptiMEM. After 24 h of incubation, the culture was harvested by centrifugation with PBS. The cell suspension was then allocated into a white 384-well plate at a volume of 30 µL per well, followed by the addition of 10 µL of freshly prepared 50 µM coelenterazine 400a (Yeasen). Following a 15-min equilibration period, cells were treated with 10 µL of ligand for an additional 5 min. Plates were subsequently read in a BioTek Synergy H1 microplate reader (BioTek) equipped with 395 nm (RLuc8-coelenterazine 400a) and 510 nm (GFP2) emission filters. BRET2 ratios were calculated as the ratio of the GFP2 emission to RLuc8 emission. Data were normalized to the baseline response of the ligand. […]
Background: BRET reads energy transfer from a luciferase to a nearby fluorophore.

Assay [1] addresses T2, PrRPR Q317A (Homo sapiens, UniProt P49683, Q317A).
T2 construct: Flag; expressed in transfected cells; host or cells: AD293 cells
In words: BRET2 Gi dissociation, Q317A. As to conditions: Q317A (7.35), Gi-coupling, AD293 cells; mean ± S.E.M., n = 3; P <0.0001 vs WT; read-out: BRET2 pEC50 (converted). The procedure:
as §1

Assay [2] deals with T3, PrRPR E212A (Homo sapiens, UniProt P49683, E212A).
T3 construct: expressed in transfected cells; host or cells: AD293 cells
Nature of the assay: BRET2 Gi dissociation, E212A. As to conditions: E212A (45.51), Gi-coupling, AD293 cells; mean ± S.E.M., n = 3; P <0.0001 vs WT; read-out: BRET2 pEC50 (converted). The procedure: as §1

For a further assay, the target named is T4, PrRPR T233A (Homo sapiens, UniProt P49683, T233A).
T4 construct: Flag; expressed in transfected cells; host or cells: AD293 cells
Nature of the assay: BRET2 Gi dissociation, T233A. The settings on record: T233A (5.46), Gi-coupling, AD293 cells; mean ± S.E.M., n = 3; P <0.0001 vs WT; read-out: BRET2 pEC50 (converted). How it is done:
as §1

A further assay concerns the target T5, PrRPR Q141A (Homo sapiens, UniProt P49683, Q141A).
T5 construct: expressed in transfected cells; host or cells: AD293 cells
In words: BRET2 Gq dissociation, Q141A. The settings on record: Q141A (3.32), Gq-coupling, AD293 cells; mean ± S.E.M., n = 3; P 0.0059 vs WT; read-out: BRET2 pEC50 (converted). How it is done:
as §1, with “Following a 15-min equilibration period, cells were treated with 10 µL of ligand for an additional 5 min.” left out, “emission.” for “emission. Data were normalized to the baseline response of the ligand.”
(§2) Supplementary Fig. S4 | Effects of mutations in the ligand-binding pocket and G protein intereface of Gq coupled PrRPR by BRET2 assay. […] BRET2 assay signals were measured after stimulation with PrRP20. […]

Assay [3] addresses T2, PrRPR Q317A. Nature of the assay: BRET2 Gq dissociation, Q317A. The settings on record: Q317A (7.35), Gq-coupling, AD293 cells; mean ± S.E.M., n = 3; P <0.0001 vs WT; read-out: BRET2 pEC50 (converted). How it is done: as §1, with “Following a 15-min equilibration period, cells were treated with 10 µL of ligand for an additional 5 min.” left out, “emission.” for “emission. Data were normalized to the baseline response of the ligand.”
as §2

A further assay deals with T6, PrRPR H295A (Homo sapiens, UniProt P49683, H295A).
T6 construct: Flag; expressed in transfected cells; host or cells: AD293 cells
Nature of the assay: BRET2 Gi dissociation, H295A. The settings on record: H295A (6.52), Gi-coupling, AD293 cells; mean ± S.E.M., n = 3; P 0.8032 vs WT; read-out: BRET2 pEC50 (converted). How it is done:
as §1

Another assay has as its target T7, PrRPR W127A (Homo sapiens, UniProt P49683, W127A).
T7 construct: expressed in transfected cells; host or cells: AD293 cells
In words: BRET2 Gq dissociation, W127A. The settings on record: W127A (23.50), Gq-coupling, AD293 cells; mean ± S.E.M., n = 3; P <0.0001 vs WT; read-out: BRET2 pEC50 (converted). How it is done:
as §1, with “Following a 15-min equilibration period, cells were treated with 10 µL of ligand for an additional 5 min.” left out, “emission.” for “emission. Data were normalized to the baseline response of the ligand.”
as §2

The target of a further assay is T8, PrRPR L229A (Homo sapiens, UniProt P49683, L229A).
T8 construct: Flag; expressed in transfected cells; host or cells: AD293 cells
Nature of the assay: BRET2 Gq dissociation, L229A. As to conditions: L229A (5.42), Gq-coupling, AD293 cells; mean ± S.E.M., n = 3; P <0.0001 vs WT; read-out: BRET2 pEC50 (converted). How it is done:
as §1, with “Following a 15-min equilibration period, cells were treated with 10 µL of ligand for an additional 5 min.” left out, “emission.” for “emission. Data were normalized to the baseline response of the ligand.”
as §2

A further assay concerns the target T9, PrRPR V145A (Homo sapiens, UniProt P49683, V145A).
T9 construct: expressed in transfected cells; host or cells: AD293 cells
Nature of the assay: BRET2 Gi dissociation, V145A. The settings on record: V145A (3.36), Gi-coupling, AD293 cells; mean ± S.E.M., n = 3; P 0.9852 vs WT; read-out: BRET2 pEC50 (converted). The procedure:
as §1

Assay [4] has as its target T3, PrRPR E212A. In words: BRET2 Gq dissociation, E212A. The settings on record: E212A (45.51), Gq-coupling, AD293 cells; mean ± S.E.M., n = 3; P <0.0001 vs WT; read-out: BRET2 pEC50 (converted). How it is done:
as §1, with “Following a 15-min equilibration period, cells were treated with 10 µL of ligand for an additional 5 min.” left out, “emission.” for “emission. Data were normalized to the baseline response of the ligand.”
as §2

The target of the next assay is T10, PrRPR E213A (Homo sapiens, UniProt P49683, E213A).
T10 construct: expressed in transfected cells; host or cells: AD293 cells
Nature of the assay: BRET2 Gi dissociation, E213A. The settings on record: E213A (45.52), Gi-coupling, AD293 cells; mean ± S.E.M., n = 3; P <0.0001 vs WT; read-out: BRET2 pEC50 (converted). How it is done: as §1

T2 sequence (P49683 whole entry Q317A): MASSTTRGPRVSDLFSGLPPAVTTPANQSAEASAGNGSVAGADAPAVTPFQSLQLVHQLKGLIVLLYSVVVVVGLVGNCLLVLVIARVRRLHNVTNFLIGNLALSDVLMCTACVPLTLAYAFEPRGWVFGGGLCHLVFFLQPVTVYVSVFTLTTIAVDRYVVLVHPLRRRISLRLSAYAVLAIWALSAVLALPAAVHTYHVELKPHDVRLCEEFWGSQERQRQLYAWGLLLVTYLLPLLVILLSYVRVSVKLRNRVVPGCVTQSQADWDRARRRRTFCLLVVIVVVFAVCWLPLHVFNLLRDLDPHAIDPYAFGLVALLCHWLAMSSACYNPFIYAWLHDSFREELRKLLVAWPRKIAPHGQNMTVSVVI
T3 sequence (P49683 whole entry E212A): as the sequence (P49683 whole entry Q317A) above, with E212A, A317Q counted along it
T10 sequence (P49683 whole entry E213A): as the sequence (P49683 whole entry Q317A) above, with E213A, A317Q counted along it
T7 sequence (P49683 whole entry W127A): as the sequence (P49683 whole entry Q317A) above, with W127A, A317Q counted along it
T4 sequence (P49683 whole entry T233A): as the sequence (P49683 whole entry Q317A) above, with T233A, A317Q counted along it
T6 sequence (P49683 whole entry H295A): as the sequence (P49683 whole entry Q317A) above, with H295A, A317Q counted along it
T8 sequence (P49683 whole entry L229A): as the sequence (P49683 whole entry Q317A) above, with L229A, A317Q counted along it
T5 sequence (P49683 whole entry Q141A): as the sequence (P49683 whole entry Q317A) above, with Q141A, A317Q counted along it
T1 sequence (P49683 whole entry Y120A): as the sequence (P49683 whole entry Q317A) above, with Y120A, A317Q counted along it
T9 sequence (P49683 whole entry V145A): as the sequence (P49683 whole entry Q317A) above, with V145A, A317Q counted along it

As to `CC[C@H](C)[C@H](NC(=O)CNC(=O)[C@H](CCCNC(=N)N)NC(=O)[C@H](CO)NC(=O)[C@H](C)NC(=O)[C@H](Cc1ccc(O)cc1)NC(=O)[C@H](Cc1c[nH]c2ccccc12)NC(=O)[C@H](C)NC(=O)[C@@H]1CCCN1C(=O)[C@H](CC(N)=O)NC(=O)[C@@H](NC(=O)[C@H](CC(=O)O)NC(=O)[C@@H]1CCCN1C(=O)[C@@H](N)[C@@H](C)O)[C@@H](C)CC)C(=O)N[C@@H](CCCNC(=N)N)C(=O)N1CCC[C@H]1C(=O)N[C@H](C(=O)NCC(=O)N[C@@H](CCCNC(=N)N)C(=O)N[C@@H](Cc1ccccc1)C(N)=O)C(C)C` [PrRP20] (H-TPDINPAWYASRGIRPVGRF-NH2), the EC50 at PrRPR Y120A is 3390 nM; at PrRPR Q317A [1] it was 4170 nM; on PrRPR E212A [2], 398 nM; at PrRPR T233A, 18.6 nM; on PrRPR Q141A, 3.02 nM; on PrRPR Q317A [3] it was 309 nM. The EC50 was 3.02 nM on PrRPR H295A; 240 nM on PrRPR W127A; 20.4 nM at PrRPR L229A; 2.63 nM at PrRPR V145A; 28.8 nM at PrRPR E212A [4]; 1380 nM at PrRPR E213A.

The values are drawn from article PMC11369081, “Molecular mechanism of prolactin-releasing peptide recognition and signaling via its G protein-coupled receptor” (Cell Discovery, 2024).
